Structures can show the parent of a compound that is named as a salt.
What was measured:
Experiment in all cases: microbe, parasite or virus in culture
Details in all cases: for IC50: Influenza A virus, MDCK; for SI: TC50/IC50
A/tianjinjinnan/15/2009 = type: cell-based, Influenza A virus (H1N1, oseltamivir-resistant)
[1] = tested on: A/liaoningzhenxing/1109/2010; type: cell-based, Influenza A virus (H1N1, oseltamivir-resistant)
A/hunanzhuhui/1222/2010 = type: cell-based, Influenza A virus (H3N2, amantadine-resistant)
A/fujiantongan/196/2009 = type: cell-based, Influenza A virus (H3N2, amantadine-resistant)

SMILES	IC50 (A/tianjinjinnan/15/2009) [µM]	IC50 [1] [µM]	IC50 (A/hunanzhuhui/1222/2010) [µM]	IC50 (A/fujiantongan/196/2009) [µM]	SI (A/tianjinjinnan/15/2009)	SI [1]	SI (A/hunanzhuhui/1222/2010)	SI (A/fujiantongan/196/2009)
NC12CC3CC(CC(C3)C1)C2 [AH, amantadine hydrochloride]	18.2 ± 0.24	10.13 ± 0.04	57.2 ± 2.23	78.8 ± 3.04	–	–	–	–
O=[N+]([O-])c1ccc(CNc2ccc3ncsc3c2)cc1 [N30, N-(4-nitrophenylmethyl) benzothiazole-6-amine]	1.67 ± 0.49	3.43 ± 3.36	1.76 ± 0.24	1.13 ± 0.43	39.92	19.44	37.89	59.00
CCC(CC)O[C@@H]1C=C(C(=O)O)C[C@H](N)[C@H]1NC(C)=O [OC, oseltamivir carboxylate]	2.57 ± 0.1	3.2 ± 0.21	0.78 ± 0.02	0.28 ± 0.01	>19.45	>15.58	>64.10	>178.57
NC(=O)c1ncn([C@@H]2O[C@H](CO)[C@@H](O)[C@H]2O)n1 [RBV, Ribavirin]	2.54 ± 1.25	4.92 ± 3.02	–	4.42 ± 0.74	–	–	–	–

From paper PMC5353780, “A novel benzo-heterocyclic amine derivative N30 inhibits influenza virus replication by depression of Inosine-5’-Monophospate Dehydrogenase activity” (Virology Journal, 2017)
